The text below walks through data of publication PMC3602246 (BMC Pharmacology & Toxicology, 2013).

“Also recorded” adds a separate entry of the source. Read-outs that look alike come from different tables or passages of the source.

For one assay, the target named is KOR. The settings on record: cited from earlier work; for Ki: read-out: Ki, affinity binding to the KOR.
For another assay, the target named is DOR. The settings on record: cited from earlier work; for Ki: read-out: Ki, affinity binding to the DOR.
In another assay the target is MOR. The settings on record: cited from earlier work; for Ki: read-out: Ki, affinity binding to the MOR.
In assay [1] the target is T1, human mu opioid receptor (MOR1) (Homo sapiens, UniProt P35372).
T1 construct: FLAG; expressed in transfected cells
Format: cell-based.

Assay [2] has as its target T2, human kappa opioid receptor (Homo sapiens, UniProt P41145).
T2 construct: FLAG; expressed in transfected cells
Format: cell-based.

Assay [3] addresses T1, human mu opioid receptor (MOR1). Format: cell-based. The settings on record: HEK-MOR; ligand 10 μM, 1 hr; DAMGO 10 μM.
Assay [4] has as its target T2, human kappa opioid receptor. Format: cell-based. This is another data set of the same source.
Assay [5] has the same target. Format: cell-based. The settings on record: read-out: IC50, single phase inhibition of BRL-52537 DMR.
Setting [6] is: read-out: EC50, first phase of biphasic DMR dose response.
Where [7] appears, read: read-out: EC50, second phase of biphasic DMR dose response.

T2 sequence (P41145 whole entry): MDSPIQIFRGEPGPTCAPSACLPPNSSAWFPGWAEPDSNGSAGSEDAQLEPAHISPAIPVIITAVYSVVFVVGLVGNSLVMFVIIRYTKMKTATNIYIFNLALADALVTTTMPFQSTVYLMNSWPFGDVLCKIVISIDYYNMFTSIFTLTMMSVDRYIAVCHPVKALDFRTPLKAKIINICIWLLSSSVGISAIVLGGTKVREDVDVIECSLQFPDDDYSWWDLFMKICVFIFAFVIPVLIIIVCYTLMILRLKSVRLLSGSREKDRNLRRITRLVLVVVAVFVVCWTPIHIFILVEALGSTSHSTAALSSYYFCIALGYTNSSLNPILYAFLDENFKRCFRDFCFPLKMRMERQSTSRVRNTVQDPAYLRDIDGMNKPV
T1 sequence (P35372 whole entry): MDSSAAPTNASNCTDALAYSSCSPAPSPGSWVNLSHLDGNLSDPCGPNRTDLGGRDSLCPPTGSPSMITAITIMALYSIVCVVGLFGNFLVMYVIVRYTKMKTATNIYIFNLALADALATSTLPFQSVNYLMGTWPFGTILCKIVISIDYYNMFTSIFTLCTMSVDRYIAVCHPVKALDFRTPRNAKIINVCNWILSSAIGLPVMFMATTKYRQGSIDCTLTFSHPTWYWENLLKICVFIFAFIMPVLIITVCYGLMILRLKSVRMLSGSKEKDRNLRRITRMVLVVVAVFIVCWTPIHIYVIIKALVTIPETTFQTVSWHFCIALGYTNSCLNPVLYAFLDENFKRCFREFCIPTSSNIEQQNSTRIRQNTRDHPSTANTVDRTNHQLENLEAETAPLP

By Ki is commonly meant the equilibrium dissociation constant of an inhibitor or competing ligand from its target. Consider Dynorphin A (2–13), for which, on KOR, the Ki was 680 nM.
For (Met5)-Enkephalin, the results for the Ki on DOR, on MOR and on KOR were 2 nM, 3 nM and 2.9 nM, respectively.
Regarding `C[C@@H](NC(=O)[C@@H](N)Cc1ccc(O)cc1)C(=O)NCC(=O)N(C)[C@@H](Cc1ccccc1)C(=O)NCCO` [DAMGO], in assay [1], the “DMR agonist activity classification, MOR” value is reported as “Full agonist” and the “DMR response at 9 min poststimulation” value is 240±17 pm. In addition, in assay [2], the “saturable DMR amplitude, first phase of biphasic dose response” value (from here on “saturable DMR amplitude, first phase”) was 139±6 pm and the “saturable DMR amplitude, second phase of biphasic dose response” value (“saturable DMR amplitude, second phase” for short) stood at 200±8 pm. In addition, the Ki at KOR is > 20000 nM.
Regarding `Oc1ccc2c3c1O[C@H]1c4[nH]c5c(c4C[C@@]4(O)[C@@H](C2)N(CC2CC2)CC[C@]314)C[C@@]1(O)[C@H]2Cc3ccc(O)c4c3[C@@]1(CCN2CC1CC1)[C@H]5O4` [Nor-Binaltorphimine], the “blockage of the DAMGO response” value in assay [3] was “partial blockage”. Besides, the “DMR under all eight assay conditions” value in assay [4] is recorded as “absence of any DMR; also recorded: did not trigger any DMR response under any conditions”.
As a reminder, the IC50 is the concentration that inhibits the measured activity by half. What is called EC50 is the concentration that produces a half-maximal response. With `CN(C(=O)Cc1ccc(Cl)c(Cl)c1)[C@H](CN1CCCC1)c1cccc(N=C=S)c1` [DIPPA], the IC50 in assay [5] was 455 ± 32.3 nM; in the assay with DOR (read-out: IC50, affinity binding to the DOR), > 1000 nM; in the assay with MOR (read-out: IC50, affinity binding to the MOR), 1800 nM; in the assay on KOR (read-out: IC50, affinity binding to the KOR), 2.21 nM. Also, in assay [2], the “DMR agonist activity classification, KOR” value is recorded as “Full agonist”. Also, the “saturable DMR amplitude, first phase” value in assay [2] turned out to be 138±8 pm. Besides, the “saturable DMR amplitude, second phase” value in assay [2] is 205±9 pm. Also, the EC50 stood at 13.4 ± 1.5 nM in assay [2] (setting [6]) and 240 ± 11.2 nM in assay [2] (setting [7]). Also, in assay [4], the “ligand DMR in PTX-pretreated cells” value is reported as “detectable P-DMR”.
`Oc1ccc2c3c1O[C@H]1c4c(c5ccccc5n4Cc4ccccc4)C[C@@]4(O)[C@@H](C2)N(CC2CC2)CC[C@]314` [N-Benzylnaltrindole]: the “blockage of the DAMGO response” value in assay [3] is “partial blockage”. In the assay on DOR, the “IC50 ratio at the DOR” value is recorded as 459. In addition, the “IC50 ratio at the MOR” value in the assay on MOR was 11.2. Moreover, in the assay with KOR, the “IC50 ratio at the KOR” value was 1.3.
For `C=CC[N+]1(C)CC[C@]23c4c5ccc(O)c4O[C@H]2C(=O)CC[C@@]3(O)[C@H]1C5` (stereo partly drawn) [Naloxone methiodide], in assay [3], the “blockage of the DAMGO response” value is listed as “partial blockage”. In addition, the Ki at DOR is 204 nM; at MOR, 28.9 nM; at KOR, 1010 nM.
`COc1ccc2c3c1O[C@H]1[C@@H](O)C=C[C@H]4[C@@H](C2)NCC[C@@]341` [(−)-Norcodeine]: the Ki at MOR was 267 nM.
For the molecule `Oc1ccc2c3c1O[C@H]1c4oc5ccccc5c4C[C@@]4(O)[C@@H](C2)N(CC2CC2)CC[C@]314` [Naltriben], the “blockage of the DAMGO response” value in assay [3] was “partial blockage”. Further, the Ki on DOR is 0.4 nM; on MOR, 80.8 nM; on KOR, > 10000 nM.
As for `COC(=O)N1CCN(C(=O)Cc2ccc(Cl)c(Cl)c2)C(CN2CCCC2)C1` (stereo not drawn) [GR 89696], the “DMR agonist activity classification, KOR” value in assay [2] is given as “Full agonist”. In addition, the Ki on KOR is 41.7 nM. Moreover, in assay [4], the “ligand DMR in PTX-pretreated cells” value is recorded as “detectable P-DMR”.
On to Nociceptin, for which the Ki at DOR is > 1000 nM; at MOR it was 270 nM; on KOR it was > 1000 nM.
For the molecule DADLE, the Ki on DOR is 0.63 nM; at MOR it was 150 nM; at KOR it was 1900 nM.
For the molecule `COC(=O)/C=C/C(=O)N[C@@H]1CC[C@@]2(O)[C@H]3Cc4ccc(O)c5c4[C@@]2(CCN3CC2CC2)[C@H]1O5` [β-Funaltrexamine], the Ki was 48 nM at DOR, 0.33 nM at MOR and 2.8 nM on KOR.
Consider `C=CCN1CCC2(C)c3cc(O)ccc3CC1C2C` (stereo not drawn) [SKF10047], for which the Ki was 19000 nM on DOR, 1900 nM at MOR and 1600 nM at KOR.
For DTLET, the Ki was 22 nM on DOR and > 10000 nM on KOR. Moreover, the “DMR agonist activity classification, MOR” value in assay [1] was “Full agonist”.
For the molecule `COC(=O)[C@@H]1C[C@H](OC(C)=O)C(=O)[C@H]2[C@@]1(C)CC[C@H]1C(=O)O[C@H](c3ccoc3)C[C@]21C` [Salvinorin A], the EC50 in the assay with MOR (read-out: EC50 at the MOR) is […]; with KOR (read-out: EC50 at the KOR), […]. Also, the “DMR agonist activity classification, KOR” value in assay [2] is “Full agonist”. Moreover, the “ligand DMR in PTX-pretreated cells” value in assay [4] is reported as “detectable P-DMR”.
`NC(=O)[C@H](Cc1ccccc1)NC(=O)[C@H](Cc1c[nH]c2ccccc12)NC(=O)[C@@H]1CCCN1C(=O)[C@@H](N)Cc1ccc(O)cc1` [Endomorphin-1]: the Ki at DOR was > 500 nM.
Turning to `Oc1ccc2c3c1O[C@H]1c4[nH]c5ccccc5c4C[C@@]4(O)[C@@H](C2)N(CC2CC2)CC[C@]314` [Naltrindole], the “blockage of the DAMGO response” value in assay [3] is listed as “partial blockage”.
As for `NC(=O)[C@H](Cc1ccccc1)NC(=O)[C@H](Cc1ccccc1)NC(=O)[C@@H]1CCCN1C(=O)[C@@H](N)Cc1ccc(O)cc1` [Endomorphin-2], the Ki at DOR is > 500 nM; at MOR, 0.43 nM.
On to Dynorphin A (1–13), for which the results for the Ki at DOR, at MOR and at KOR were > 1000 nM, 31 nM and 0.98 nM, respectively.
On to “α-Neoendorphin (YGGFLRKYPK; Alpha-neoendorphin; UniProt P01213 175-184, looked up) [Kappa agonist]”, for which the Ki is 1.17 nM on DOR and 1.4 nM at KOR. Also, in assay [2], the “DMR agonist activity classification, KOR” value was “Full agonist”. Besides, the “ligand DMR in PTX-pretreated cells” value in assay [4] is reported as “detectable P-DMR”.
As to “Dynorphin A (1–8) (YGGFLRRI; Dynorphin A(1-8); UniProt P01213 207-214, looked up, fragment)”, the Ki was 32.6 nM on DOR and 22.3 nM at MOR. For the same molecule, the “DMR agonist activity classification, MOR” value in assay [1] is reported as “Full agonist”.
Consider DSLET, for which the “DMR agonist activity classification, MOR” value in assay [1] is “Full agonist”. Moreover, the Ki at MOR is 120 nM.
For the molecule `CC1(C)SSC(C)(C)[C@@H](NC(=O)[C@@H](N)Cc2ccc(O)cc2)C(=O)NCC(=O)N[C@@H](Cc2ccccc2)C(=O)N[C@H]1C(=O)O` [DPDPE], the results for the Ki at MOR and at KOR were 600 nM and 12000 nM, respectively.
For `O=C(Cc1ccc(Cl)c(Cl)c1)N1CCCCC1CN1CCCC1` (stereo not drawn) [BRL-52537], the IC50 in assay [5] came out at 4.1 ± 0.23 nM. Further, on MOR, the Ki was 1560 nM. Also, in assay [2], the “DMR agonist activity classification, KOR” value is “Full agonist”; the “DMR response at 9 min poststimulation” value came out at 213±21 pm; the “saturable DMR amplitude, first phase” value amounted to 120±6 pm; the “saturable DMR amplitude, second phase” value is given as 207±13 pm. Moreover, in assay [2] (setting [6]), the EC50 came to 0.0356 ± 0.0031 nM. In assay [2] (setting [7]), the EC50 was determined as 26 ± 1.9 nM. Also, at KOR, the Ki was 0.24 nM. The “ligand DMR in PTX-pretreated cells” value in assay [4] is on record as “detectable P-DMR”.
On to Dynorphin B, for which the inhibition constant Ki on DOR is 12.8 nM.
Consider Deltorphin II, for which the inhibitory constant (Ki) at DOR was 3.3 nM; at MOR, > 1000 nM; at KOR it was > 1000 nM.
For the molecule `C=CCN1CC[C@]23CCCC[C@H]2[C@H]1Cc1ccc(O)cc13` [Levallorphan], the Ki is 1 nM at DOR, 1.7 nM at MOR and 0.3 nM on KOR.
For the molecule `CN(C(=O)Cc1ccc(Cl)c(Cl)c1)C(CN1CCCC1)c1cccc(OCC(=O)O)c1` (stereo not drawn) [ICI 204,448], the inhibitory constant (Ki) at DOR was > 1000 nM; on MOR, > 1000 nM; at KOR, 2.69 nM.
On to `O=C1/C(=C/c2ccccc2)C[C@@]2(O)[C@H]3Cc4ccc(O)c5c4[C@@]2(CCN3CC2CC2)[C@H]1O5` [BNTX], for which the Ki was 0.66 nM at DOR, 18 nM at MOR and 55 nM at KOR. In addition, the “DMR agonist activity classification, MOR” value in assay [1] is “off-target”. Moreover, in assay [2], the “DMR agonist activity classification, KOR” value is on record as “off-target”.
